This is an account of results in publication PMC8003416, “Modulation of Human Phenylalanine Hydroxylase by 3-Hydroxyquinolin-2(1H)-One Derivatives” (Biomolecules, 2021).

Assay [1] concerns the target T1, human phenylalanine hydroxylase (hPAH) (Homo sapiens, UniProt P00439).
T1 construct: Recombinant full-length wild-type (WT) hPAH was expressed in E. coli Top10 cells in fusion with a hexa-histidyl peptide; made in house; host or cells: E. coli Top10
T1 sequence (P00439 1-452): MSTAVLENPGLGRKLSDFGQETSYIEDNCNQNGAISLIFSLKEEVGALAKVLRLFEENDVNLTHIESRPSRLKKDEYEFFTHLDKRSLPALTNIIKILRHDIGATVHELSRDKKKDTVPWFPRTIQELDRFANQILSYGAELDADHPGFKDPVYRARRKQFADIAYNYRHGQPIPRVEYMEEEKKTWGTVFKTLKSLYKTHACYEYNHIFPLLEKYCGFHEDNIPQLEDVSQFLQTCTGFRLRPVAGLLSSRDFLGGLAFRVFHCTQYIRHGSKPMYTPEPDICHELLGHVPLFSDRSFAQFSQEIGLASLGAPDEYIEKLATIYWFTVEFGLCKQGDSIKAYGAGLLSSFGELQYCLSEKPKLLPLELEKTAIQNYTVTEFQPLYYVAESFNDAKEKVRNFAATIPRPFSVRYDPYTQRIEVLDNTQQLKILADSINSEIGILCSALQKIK
As to the kind of experiment: Differential scanning fluorimetry (thermal denaturation). The class given is binding. To be noted: for Tm1 (regulatory domain) / Tm2 (catalytic domain): 100 μM compound in 1% DMSO; for Tm1 (regulatory domain): control 43.4 ± 0.6; for Tm2 (catalytic domain): control 53.5 ± 0.4; for ΔTm1 (regulatory domain) / ΔTm2 (catalytic domain): 100 μM compound vs 1% DMSO control, * S.D. < 0.01; for effect on thermal stability of regulatory and catalytic domains (|ΔTm| ≥ 2 °C): 100 μM compound. On the procedure: Thermal denaturation profiles of recombinant hPAH were obtained by differential scanning fluorimetry (DSF) in a C1000 Touch thermal cycler equipped with a CFX96 optical reaction module (Bio-Rad; Hercules, CA, USA) as previously described. Briefly, DSF assays (n = 3) were performed using 100 μg/mL hPAH tetramers (final concentration of 0.45 μM of tetramer), SYPRO Orange (5000-fold commercially available stock solution; Invitrogen; Carlsbad, CA, USA) at a 2.5-x final concentration and ramping the temperature from 20 to 90 °C, at 1 °C/min. Fluorescence data were acquired using the FRET channel. Data were processed using CFX Manager Software V3.0 (Bio-Rad) and the GraphPad Prism. Temperature scan curves were fitted to a biphasic dose–response function and the Tm values were obtained from the midpoint of the first (Tm1) and second transitions (Tm2) corresponding, respectively, to the thermal denaturation of the regulatory and catalytic domains. The Tm values in the presence of 3HQ were compared to those obtained in the presence of 1% DMSO (vehicle control) and a change in the Tm was considered significant when the |ΔTm| ≥ 2 °C [22].

The target of assay [2] is T1, human phenylalanine hydroxylase (hPAH). As to the kind of experiment: hPAH enzymatic activity assay (NA, 3HQ-A and Phe/3HQ-A conditions). The class given is biochemical. To be noted: 100 μM compound; for fold activation by L-Phe (Phe/3HQ-A vs. 3HQ-A): 100 μM L-Phe; for hPAH activity vs respective control: all three conditions (NA, 3HQ-A, Phe/3HQ-A). On the procedure:
The hPAH activity was measured essentially as previously described. Briefly, the enzymatic reaction was performed in a 200 μL final volume, containing 250 mM Na-HEPES, pH 7, 0.1 mg/mL catalase (Sigma-Aldrich; St. Louis, MO, USA), 5 μg (final concentration of 0.112 μM of tetramer) of recombinant hPAH tetramers and 100 μM (NH4)2Fe(II)SO4. Using 100 μM L-Phe and 100 μM of tested compound, three experimental conditions were used to study the compounds’ modulatory effect, namely: non activated (NA), 3HQ-activated (3HQ-A) and substrate/3HQ-activated (Phe/3HQ-A) (Supplementary Figure S3). The reaction was started by addition of 75 μM BH4 (Schircks Laboratories; Bauma, Switzerland) prepared in 5 mM ascorbic acid. In the NA assay, the L-Phe substrate and tested compounds were added together with 75 µM BH4 at the start of the hydroxylation reaction. In the 3HQ-A condition, hPAH was pre-incubated with the tested compound for 4 min at 25 °C and the reaction was started by the addition of BH4 together with L-Phe. In the Phe/3HQ-A condition, hPAH was pre-incubated simultaneously with L-Phe and the tested compound (4 min, 25 °C). Appropriate control reactions were performed where the compounds were omitted and 1% DMSO was used. Kinetic parameters were determined using variable concentrations of L-Phe (25 to 2500 μM) and fixed concentrations of BH4 (75 μM) and tested compound (100 μM). After a 1-min incubation, the reaction was stopped, and the amount of L-Tyr produced was quantified by HPLC as previously described. The specific hPAH enzymatic activity is expressed as nmol of L-Tyr produced during 1 min per mg of protein (nmol L-Tyr.min^−1.mg^−1). The steady-state kinetic data were analyzed by nonlinear regression analysis using GraphPad Prism (La Jolla, CA, USA). Data was fitted to the modified Hill equation accounting for cooperative substrate binding as well as substrate inhibition (Equation (1)), to the modified Michaelis–Menten equation which accounts for substrate inhibition (Equation (2)) and to the non-modified Michaelis–Menten equation:v = (Vmax + Vi ([S]^x/Ki^x))/(1 + (K^h/[S]^h) + ([S]^x/Ki^x))(1) v = (Vmax [S])/(Km + [S](1 + [S]/Ki))(2)

The next assay deals with hPAH. Also noted: method as in PMID 9843368. To be noted: ref [36]; read-out: KD (high affinity binding to hPAH); cited from earlier work.

Each structure is given as a SMILES string.

In the case of `O=C(c1c(O)c(=O)[nH]c2ccc(OC(F)(F)F)cc12)N1CCCC1` [Compound 15], in assay [1], the “Tm1 (regulatory domain)” value worked out at 44.5 ± 0.8 °C, the “Tm2 (catalytic domain)” value worked out at 53.3 ± 0.3 °C, the “ΔTm1 (regulatory domain)” value was “+1.1 ± 0.02 °C” and the “ΔTm2 (catalytic domain)” value was -0.2 ± 0.01 °C.
For the compound `O=C(c1ccccc1)c1c(O)c(=O)[nH]c2ccc(OC(F)(F)F)cc12` [Compound 20], in assay [1], the “Tm1 (regulatory domain)” value is 44.2 ± 0.1 °C, the “Tm2 (catalytic domain)” value came to 53.8 ± 0.1 °C, the “ΔTm1 (regulatory domain)” value was “+0.8± 0.01 °C” and the “ΔTm2 (catalytic domain)” value is “+0.31± 0.01 °C”.
Take `O=C(Nc1ccccc1)c1c(O)c(=O)[nH]c2ccc(OC(F)(F)F)cc12` [Compound 5]: in assay [1], the “effect on thermal stability of regulatory and catalytic domains (|ΔTm| ≥ 2 °C)” value (“effect on thermal stability … (|ΔTm| ≥ 2 °C)” below) is “destabilized the regulatory and catalytic domains”; the “Tm1 (regulatory domain)” value was 38.7 ± 0.2 °C; the “Tm2 (catalytic domain)” value was found to be 42.3 ± 0.2 °C; the “ΔTm1 (regulatory domain)” value was -4.7 ± 0.02 °C. Besides, the “ΔTm2 (catalytic domain)” value in assay [1] was -11.2 ± 0.05 °C.
With `COC(=O)[C@H](CC(C)C)NC(=O)c1c(O)c(=O)[nH]c2ccc(OC(F)(F)F)cc12` [Compound 10], in assay [1], the “Tm1 (regulatory domain)” value worked out at 43.1 ± 0.5 °C, the “Tm2 (catalytic domain)” value came to 53.4 ± 0.2 °C and the “ΔTm1 (regulatory domain)” value was -0.3 ± 0.01 °C. Besides, in assay [2], the “fold enzyme activation by compound (3HQ-A vs. NA)” value (from here on “fold enzyme activation by compound”) was found to be 0.9 fold and the “fold activation by L-Phe (Phe/3HQ-A vs. 3HQ-A)” value (“fold activation by L-Phe” for short) was determined as 1.4 fold. In assay [2] (NA (non-activated) condition, read-out: hPAH residual activity vs control), the remaining activity at 100 µM was 68%.
As for `CCOC(=O)[C@H](Cc1ccccc1)NC(=O)c1c(O)c(=O)[nH]c2ccccc12` [Compound 1], in assay [1], the “Tm1 (regulatory domain)” value was determined as 39.4 ± 1.0 °C, the “Tm2 (catalytic domain)” value is 55.9 ± 0.2 °C, the “ΔTm1 (regulatory domain)” value is -3.9 ± 0.10 °C and the “ΔTm2 (catalytic domain)” value is “+2.4 ± 0.01 °C”. Moreover, the “hPAH activity vs respective control” value in assay [2] was “high decreases in enzyme activity”.
Turning to `CC(C)(C)OC(=O)c1c(O)c(=O)[nH]c2ccc(OC(F)(F)F)cc12` [Compound 17], in assay [1], the “Tm1 (regulatory domain)” value was 44.6 ± 0.2 °C, the “Tm2 (catalytic domain)” value came to 53.7 ± 0.2 °C, the “ΔTm1 (regulatory domain)” value was “+1.2 ± 0.01 °C” and the “ΔTm2 (catalytic domain)” value is “+0.2 ± 0.01 °C”.
For `NCCc1ccc(O)c(O)c1` [dopamine], the Kd at hPAH was less than 1000 nM.
Turning to `CCOC(=O)CNC(=O)c1c(O)c(=O)n(Cc2ccccc2)c2ccccc12` [Compound 13], in assay [1], the “Tm1 (regulatory domain)” value is 44.6 ± 0.4 °C, the “Tm2 (catalytic domain)” value was 53.5 ± 0.1 °C, the “ΔTm1 (regulatory domain)” value was “+1.2 ± 0.01 °C” and the “ΔTm2 (catalytic domain)” value was “+0.1 ± 0.01 °C”. Moreover, the “fold enzyme activation by compound” value in assay [2] is “decreased enzyme activity”.
Take `NC[C@H](O)c1ccc(O)c(O)c1` [noradrenaline]: the equilibrium dissociation constant (Kd) on hPAH is less than 1000 nM.
In the case of `CC(CCc1ccccc1)OC(=O)c1c(O)c(=O)[nH]c2ccc(OC(F)(F)F)cc12` (stereo not drawn) [Compound 19], in assay [1], the “effect on thermal stability … (|ΔTm| ≥ 2 °C)” value was “destabilized the regulatory and catalytic domains”; the “Tm1 (regulatory domain)” value is 33.0 ± 0.3 °C; the “Tm2 (catalytic domain)” value is 35.5 ± 0.1 °C; the “ΔTm1 (regulatory domain)” value was -10.4 ± 0.09 °C.
On to `O=C(CNC(=O)c1c(O)c(=O)[nH]c2ccc(OC(F)(F)F)cc12)OCc1ccccc1` [Compound 12], for which, in assay [1], the “Tm1 (regulatory domain)” value was 43.8 ± 0.1 °C, the “Tm2 (catalytic domain)” value is 53.1 ± 0.1 °C, the “ΔTm1 (regulatory domain)” value turned out to be 0.4 ± 0.01 °C and the “ΔTm2 (catalytic domain)” value is -0.4 ± 0.01 °C. In assay [2], the “fold enzyme activation by compound” value is listed as 0.6 fold and the “fold activation by L-Phe” value is “allowing substrate activation”.
As to `O=C(NCc1ccccc1)c1c(O)c(=O)[nH]c2ccc(OC(F)(F)F)cc12` [Compound 6], in assay [1], the “Tm1 (regulatory domain)” value is 42.5 ± 0.2 °C, the “Tm2 (catalytic domain)” value was found to be 53.0 ± 0.1 °C, the “ΔTm1 (regulatory domain)” value was -0.9 ± 0.01 °C and the “ΔTm2 (catalytic domain)” value was -0.5 ± 0.01 °C.
For the compound `O=C(NCc1ccccc1)c1c(O)c(=O)n(Cc2ccccc2)c2ccccc12` [Compound 14], in assay [1], the “Tm1 (regulatory domain)” value amounted to 44.8 ± 0.1 °C, the “Tm2 (catalytic domain)” value worked out at 53.5 ± 0.1 °C, the “ΔTm1 (regulatory domain)” value was “+1.4 ± 0.01 °C” and the “ΔTm2 (catalytic domain)” value is “+0.1 ± 0.01 °C”. In addition, the “fold activation by L-Phe” value in assay [2] is recorded as “did not allow substrate activation”.
Take `CCOC(=O)[C@H](Cc1ccccc1)NC(=O)c1c(O)c(=O)[nH]c2ccc(Cl)cc12` [Compound 2]: in assay [1], the “effect on thermal stability … (|ΔTm| ≥ 2 °C)” value is “destabilized the regulatory and catalytic domains”; the “Tm1 (regulatory domain)” value was 35.6 ± 0.2 °C; the “Tm2 (catalytic domain)” value was determined as 43.0 ± 0.4 °C; the “ΔTm1 (regulatory domain)” value is -7.8 ± 0.04 °C. Moreover, the “ΔTm2 (catalytic domain)” value in assay [1] is -10.5 ± 0.11 °C. Moreover, the “hPAH activity vs respective control” value in assay [2] is “high decreases in enzyme activity”.
As for `CN(Cc1ccccc1)C(=O)c1c(O)c(=O)[nH]c2ccc(OC(F)(F)F)cc12` [Compound 7], in assay [1], the “Tm1 (regulatory domain)” value stood at 43.3 ± 0.1 °C, the “Tm2 (catalytic domain)” value stood at 53.7 ± 0.1 °C and the “ΔTm2 (catalytic domain)” value is “+0.2 ± 0.01 °C”.
On to `CNC[C@H](O)c1ccc(O)c(O)c1` [adrenaline], for which the Kd at hPAH is less than 1000 nM.
In the case of `CC(OC(=O)c1c(O)c(=O)[nH]c2ccc(OC(F)(F)F)cc12)c1ccccc1` (stereo not drawn) [Compound 18], in assay [1], the “effect on thermal stability … (|ΔTm| ≥ 2 °C)” value is “destabilized the regulatory and catalytic domains”; the “Tm1 (regulatory domain)” value was 40.0 ± 1.0 °C; the “Tm2 (catalytic domain)” value turned out to be 44.0 ± 1.4 °C; the “ΔTm2 (catalytic domain)” value was -9.6 ± 0.31 °C.
With `O=C(c1c(O)c(=O)[nH]c2ccc(OC(F)(F)F)cc12)N1CCCCC1` [Compound 16], in assay [1], the “Tm1 (regulatory domain)” value came out at 45.0 ± 1.9 °C, the “Tm2 (catalytic domain)” value was 53.2 ± 0.8 °C, the “ΔTm1 (regulatory domain)” value was “+1.7 ± 0.07 °C” and the “ΔTm2 (catalytic domain)” value was -0.3 ± 0.01 °C.
Turning to `CCOC(=O)[C@H](Cc1ccccc1)NC(=O)c1c(O)c(=O)n(Cc2ccccc2)c2ccc(OC(F)(F)F)cc12` [Compound 4], in assay [1], the “effect on thermal stability … (|ΔTm| ≥ 2 °C)” value is “destabilized the regulatory and catalytic domains”; the “Tm1 (regulatory domain)” value was 37.8 ± 1.9 °C; the “Tm2 (catalytic domain)” value was 42.7 ± 0.3 °C; the “ΔTm1 (regulatory domain)” value was -5.6 ± 0.28 °C. Also, in assay [1], the “ΔTm2 (catalytic domain)” value is -10.8 ± 0.08 °C. The “hPAH activity vs respective control” value in assay [2] was “high decreases in enzyme activity”.
